Reference: patent US7572786B2, “Substituted 1-piperidin-3-yl-4-piperidin-4-yl-piperazine derivatives and their use as neurokinin antagonists” (Janssen Pharmaceutica, N.V., priority 2002, dated 2009)

Experiments:
Format in all cases: cell-based
NK3 = target: T1, NK3 (Homo sapiens, UniProt P29371); assay: Signal transduction (ST), intracellular Ca++ (FLIPR), NK3; conditions: for IC50: read-out: pIC50 NK3 (converted)
T1 sequence (P29371 1-465): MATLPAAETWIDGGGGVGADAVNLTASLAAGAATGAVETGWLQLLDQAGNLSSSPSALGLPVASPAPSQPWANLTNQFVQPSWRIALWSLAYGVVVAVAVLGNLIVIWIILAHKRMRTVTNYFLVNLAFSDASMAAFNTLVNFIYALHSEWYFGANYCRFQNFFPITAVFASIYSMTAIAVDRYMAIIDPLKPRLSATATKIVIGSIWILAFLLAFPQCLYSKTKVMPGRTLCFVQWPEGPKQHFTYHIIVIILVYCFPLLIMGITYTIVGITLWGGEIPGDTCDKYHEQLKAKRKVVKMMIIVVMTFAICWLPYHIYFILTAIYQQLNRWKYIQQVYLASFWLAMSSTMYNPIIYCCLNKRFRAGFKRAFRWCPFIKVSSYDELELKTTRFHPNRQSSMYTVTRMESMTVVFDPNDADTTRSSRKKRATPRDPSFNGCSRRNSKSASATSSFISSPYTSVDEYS
Procedure: [The source words this procedure for another target and reports this target under the same test.] (§1) This test evaluates in vitro functional NK1 antagonistic activity. For the measurements of intracellular Ca^++ concentrations the cells were grown on 96-well (black wall/transparent bottom) plates from Costar for 2 days until they reached confluence. The cells were loaded with 2 μM Fluo3 in DMEM containing 0.1% BSA and 2.5 mM probenecid for 1 h at 37° C. […] The cells were preincubated with a concentration range of antagonists for 20 min at RT and Ca^++-signals after addition of the agonists were measured in a Fluorescence Image Plate Reader (FLIPR from Molecular Devices, Crawley, England). The peak of the Ca^++-transient was considered as the relevant signal and the mean values of corresponding wells were analysed as described below.
(§2) The sigmoidal dose response curves were analysed by computerised curve-fitting, using the GraphPad Program. […] For antagonist responses the IC50-value was calculated using non-linear regression.

NK2 = target: T2, NK2 (Homo sapiens, UniProt P21452); assay: Signal transduction (ST), intracellular Ca++ (FLIPR), NK2; conditions: for IC50: read-out: pIC50 NK2 (converted)
T2 sequence (P21452 1-398): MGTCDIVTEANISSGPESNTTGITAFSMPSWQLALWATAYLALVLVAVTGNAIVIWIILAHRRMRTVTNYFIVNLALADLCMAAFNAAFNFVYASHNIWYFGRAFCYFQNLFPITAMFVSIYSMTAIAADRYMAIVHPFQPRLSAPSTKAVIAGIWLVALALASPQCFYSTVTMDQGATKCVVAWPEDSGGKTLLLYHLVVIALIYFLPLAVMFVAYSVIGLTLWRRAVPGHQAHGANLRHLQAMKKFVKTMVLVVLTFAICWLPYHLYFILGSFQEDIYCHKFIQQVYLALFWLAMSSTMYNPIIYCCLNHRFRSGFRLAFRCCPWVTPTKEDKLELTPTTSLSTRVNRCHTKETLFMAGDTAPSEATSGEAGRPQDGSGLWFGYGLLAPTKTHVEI
Procedure: [The source words this procedure for another target and reports this target under the same test.] as §1, §2

NK1 = NK1 (Homo sapiens, UniProt P25103); assay: Signal transduction (ST), intracellular Ca++ (FLIPR), NK1 antagonism; conditions: for IC50: read-out: pIC50 NK1 (converted)
Sequence of NK1 (P25103 whole entry): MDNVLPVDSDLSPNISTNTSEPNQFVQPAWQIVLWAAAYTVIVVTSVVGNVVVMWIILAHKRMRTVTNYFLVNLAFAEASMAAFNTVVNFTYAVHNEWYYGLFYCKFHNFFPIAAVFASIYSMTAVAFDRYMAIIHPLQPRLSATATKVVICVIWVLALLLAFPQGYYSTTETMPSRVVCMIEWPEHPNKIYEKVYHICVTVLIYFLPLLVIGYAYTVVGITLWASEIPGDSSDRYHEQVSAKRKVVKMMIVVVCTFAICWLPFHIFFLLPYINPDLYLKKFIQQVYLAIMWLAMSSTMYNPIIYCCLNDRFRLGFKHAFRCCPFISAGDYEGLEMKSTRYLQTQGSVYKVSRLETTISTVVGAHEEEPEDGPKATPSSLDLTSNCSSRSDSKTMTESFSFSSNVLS
Procedure: as §1, §2

IC50 (NK3) [nM] | IC50 (NK2) [nM] | IC50 (NK1) [nM] | SMILES | pIC50 NK3 (NK3) | pIC50 NK2 (NK2) | pIC50 NK1 (NK1)
794 | 2510 | 15.8 | O=C(c1ccccc1F)N1CCCC(N2CCN([C@H]3CCN(C(=O)c4cc(C(F)(F)F)cc(C(F)(F)F)c4)[C@H](Cc4ccccc4)C3)CC2)C1 (stereo partly shown) [Compound 9] | – | – | –
501 | 3980 | 25.1 | O=C(c1ccccc1Cl)N1CCCC(N2CCN([C@H]3CCN(C(=O)c4cc(C(F)(F)F)cc(C(F)(F)F)c4)[C@H](Cc4ccccc4)C3)CC2)C1 (stereo partly shown) [Compound 10] | – | – | –
1000 | 3160 | 20 | Cc1ccccc1C(=O)N1CCCC(N2CCN([C@H]3CCN(C(=O)c4cc(C(F)(F)F)cc(C(F)(F)F)c4)[C@H](Cc4ccccc4)C3)CC2)C1 (stereo partly shown) [Compound 11] | – | – | –
158 | 6310 | 12.6 | O=C(C1CC1)N1CCCC(N2CCN([C@H]3CCN(C(=O)c4cc(C(F)(F)F)cc(C(F)(F)F)c4)[C@H](Cc4ccccc4)C3)CC2)C1 (stereo partly shown) [Compound 15] | – | – | –
251 | 2000 | 31.6 | O=C(c1cccs1)N1CCCC(N2CCN([C@H]3CCN(C(=O)c4cc(C(F)(F)F)cc(C(F)(F)F)c4)[C@H](Cc4ccccc4)C3)CC2)C1 (stereo partly shown) [Compound 20] | – | – | –
501 | 2510 | 10 | Cc1nnsc1C(=O)N1CCCC(N2CCN([C@H]3CCN(C(=O)c4cc(C(F)(F)F)cc(C(F)(F)F)c4)[C@H](Cc4ccccc4)C3)CC2)C1 (stereo partly shown) [Compound 22] | – | – | –
2000 | 3980 | 20 | O=C(c1cccnc1)N1CCCC(N2CCN([C@H]3CCN(C(=O)c4cc(C(F)(F)F)cc(C(F)(F)F)c4)[C@H](Cc4ccccc4)C3)CC2)C1 (stereo partly shown) [Compound 23] | – | – | –
794 | 7940 | 7.94 | O=C(c1cc(C(F)(F)F)cc(C(F)(F)F)c1)N1CC[C@H](N2CCN(C3CCCN(c4cnccn4)C3)CC2)C[C@H]1Cc1ccccc1 (stereo partly shown) [Compound 26] | – | – | –
158 | 2000 | 10 | O=C(c1cc(C(F)(F)F)cc(C(F)(F)F)c1)N1CC[C@H](N2CCN(C3CCCN(S(=O)(=O)c4ccccc4)C3)CC2)C[C@H]1Cc1ccccc1 (stereo partly shown) [Compound 28] | – | – | –
316 | 1260 | 6.31 | O=C(c1cc(C(F)(F)F)cc(C(F)(F)F)c1)N1CC[C@H](N2CCN(C3CCCN(S(=O)(=O)c4ccsc4)C3)CC2)C[C@H]1Cc1ccccc1 (stereo partly shown) [Compound 29] | – | – | –
631 | 631 | 15.8 | Cc1ccccc1S(=O)(=O)N1CCCC(N2CCN([C@H]3CCN(C(=O)c4cc(C(F)(F)F)cc(C(F)(F)F)c4)[C@H](Cc4ccccc4)C3)CC2)C1 (stereo partly shown) [Compound 30] | – | – | –
100 | 3160 | 7.94 | O=C(C1CCCC1)N1CCCC(N2CCN(C3CCN(C(=O)c4cc(C(F)(F)F)cc(C(F)(F)F)c4)C(Cc4ccccc4)C3)CC2)C1 (stereo not shown) [Compound 41] | – | – | –
501 | 2000 | 10 | O=C(Cc1cccs1)N1CCCC(N2CCN([C@H]3CCN(C(=O)c4cc(C(F)(F)F)cc(C(F)(F)F)c4)[C@H](Cc4ccccc4)C3)CC2)C1 (stereo partly shown) [Compound 43] | – | – | –
501 | 5010 | 15.8 | COc1ccccc1C(=O)N1CCCC(N2CCN([C@H]3CCN(C(=O)c4cc(C(F)(F)F)cc(C(F)(F)F)c4)[C@H](Cc4ccccc4)C3)CC2)C1 (stereo partly shown) [Compound 47] | – | – | –
631 | 1000 | 31.6 | CC(C(=O)N1CCCC(N2CCN([C@H]3CCN(C(=O)c4cc(C(F)(F)F)cc(C(F)(F)F)c4)[C@H](Cc4ccccc4)C3)CC2)C1)c1ccccc1 (stereo partly shown) [Compound 48] | – | – | –
316 | 631 | 15.8 | O=C(c1cc(C(F)(F)F)cc(C(F)(F)F)c1)N1CCC(N2CCN(C3CCCN(S(=O)(=O)Cc4ccccc4)C3)CC2)CC1Cc1ccccc1 (stereo not shown) [Compound 49] | – | – | –
2000 | 1000 | 7.94 | O=C(C(O)c1ccccc1)N1CCCC(N2CCN([C@H]3CCN(C(=O)c4cc(C(F)(F)F)cc(C(F)(F)F)c4)[C@H](Cc4ccccc4)C3)CC2)C1 (stereo partly shown) [Compound 56] | – | – | –
794 | 3160 | 12.6 | N#Cc1cccc(C(=O)N2CCCC(N3CCN([C@H]4CCN(C(=O)c5cc(C(F)(F)F)cc(C(F)(F)F)c5)[C@H](Cc5ccccc5)C4)CC3)C2)c1 (stereo partly shown) [Compound 57] | – | – | –
2000 | 3160 | 15.8 | O=C(c1cc(C(F)(F)F)cc(C(F)(F)F)c1)N1CCC(N2CCN(C3CCCN(S(=O)(=O)c4cccs4)C3)CC2)CC1Cc1ccccc1 (stereo not shown) [Compound 59] | – | – | –

More lines, now with the values behind:

SMILES | IC50 (NK3) [nM] | IC50 (NK2) [nM] | IC50 (NK1) [nM] | pIC50 NK3 (NK3) | pIC50 NK2 (NK2) | pIC50 NK1 (NK1)
O=C(c1cc(C(F)(F)F)cc(C(F)(F)F)c1)N1CC[C@H](N2CCN(C3CCCN(S(=O)(=O)c4cccs4)C3)CC2)C[C@H]1Cc1ccccc1 (stereo partly shown) [Compound 25] | – | – | – | 7.1 | 6.4 | 7.8
Cc1nc(S(=O)(=O)N2CCCC(N3CCN([C@H]4CCN(C(=O)c5cc(C(F)(F)F)cc(C(F)(F)F)c5)[C@H](Cc5ccccc5)C4)CC3)C2)cn1C (stereo partly shown) [Compound 32] | 100 | 631 | 5.01 | – | – | –
O=C(c1cc(C(F)(F)F)cc(C(F)(F)F)c1)N1CC[C@H](N2CCN(C3CCCN(S(=O)(=O)c4ccc(Cl)s4)C3)CC2)C[C@H]1Cc1ccccc1 (stereo partly shown) [Compound 36] | – | – | – | 6.2 | 5.3 | 7.5
O=C(c1cc(C(F)(F)F)cc(C(F)(F)F)c1)N1CC[C@H](N2CCN(C3CCCN(S(=O)(=O)c4ccc(-c5cnco5)s4)C3)CC2)C[C@H]1Cc1ccccc1 (stereo partly shown) [Compound 37] | 631 | 2000 | 12.6 | – | – | –
Cc1nc(C)c(S(=O)(=O)N2CCCC(N3CCN([C@H]4CCN(C(=O)c5cc(C(F)(F)F)cc(C(F)(F)F)c5)[C@H](Cc5ccccc5)C4)CC3)C2)s1 (stereo partly shown) [Compound 38] | 251 | 200 | 6.31 | – | – | –
Cc1noc(C)c1S(=O)(=O)N1CCCC(N2CCN([C@H]3CCN(C(=O)c4cc(C(F)(F)F)cc(C(F)(F)F)c4)[C@H](Cc4ccccc4)C3)CC2)C1 (stereo partly shown) [Compound 39] | 501 | 631 | 6.31 | – | – | –
O=C(c1cc(C(F)(F)F)cc(C(F)(F)F)c1)N1CC[C@H](N2CCN(C3CCCN(S(=O)(=O)c4cc(Cl)sc4Cl)C3)CC2)C[C@H]1Cc1ccccc1 (stereo partly shown) [Compound 40] | – | – | – | 6.6 | 5.1 | 7.6
O=C(c1cc(C(F)(F)F)cc(C(F)(F)F)c1)N1CC[C@H](N2CCN(C3CCCN(S(=O)(=O)c4ccc5nonc5c4)C3)CC2)C[C@H]1Cc1ccccc1 (stereo partly shown) [Compound 45] | 398 | 1580 | 20 | – | – | –
O=C(c1cc(C(F)(F)F)cc(C(F)(F)F)c1)N1CC[C@H](N2CCN(C3CCCN(S(=O)(=O)c4c(Cl)nc5sccn45)C3)CC2)C[C@H]1Cc1ccccc1 (stereo partly shown) [Compound 46] | 794 | 501 | 15.8 | – | – | –
O=C(c1cc(C(F)(F)F)cc(C(F)(F)F)c1)N1CC[C@H](N2CCN(C3CCCN(S(=O)(=O)c4ccccc4C(F)(F)F)C3)CC2)C[C@H]1Cc1ccccc1 (stereo partly shown) [Compound 50] | 7940 | 6310 | 100 | – | – | –
CC(C)(C)OC(=O)N1CCC[C@@H]1C(=O)N1CCCC(N2CCN([C@H]3CCN(C(=O)c4cc(C(F)(F)F)cc(C(F)(F)F)c4)[C@H](Cc4ccccc4)C3)CC2)C1 (stereo partly shown) [Compound 53] | – | – | – | 7.3 | 5.7 | 8.3
CC(C)(C)OC(=O)N1CCCC1C(=O)N1CCCC(N2CCN(C3CCN(C(=O)c4cc(C(F)(F)F)cc(C(F)(F)F)c4)C(Cc4ccccc4)C3)CC2)C1 (stereo not shown) [Compound 54] | 251 | 2000 | 5.01 | – | – | –
O=C(c1cc(C(F)(F)F)cc(C(F)(F)F)c1)N1CC[C@H](N2CCN(C3CCCN(S(=O)(=O)c4occc4COCc4ccccc4)C3)CC2)C[C@H]1Cc1ccccc1 (stereo partly shown) [Compound 90] | – | – | – | – | 5.7 | 6.8
CC(C)N/C(=C\[N+](=O)[O-])N1CCCC(N2CCN(C3CCN(C(=O)c4cc(C(F)(F)F)cc(C(F)(F)F)c4)C(Cc4ccccc4)C3)CC2)C1 (stereo not shown) [Compound 103] | – | 6310 | 10 | – | – | –
